{
  "source": "paper PMC9026026",
  "about": "(ACS Omega, 2022)",
  "molecules": {"B1": {"name": "CYP2C8 (Homo sapiens) (protein)", "chain": "MEPFVVLVLCLSFMLLFSLWRQSCRRRKLPPGPTPLPIIGNMLQIDVKDICKSFTNFSKVYGPVFTVYFGMNPIVVFHGYEAVKEALIDNGEEFSGRGNSPISQRITKGLGIISSNGKRWKEIRRFSLTTLRNFGMGKRSIEDRVQEEAHCLVEELRKTKASPCDPTFILGCAPCNVICSVVFQKRFDYKDQNFLTLMKRFNENFRILNSPWIQVCNNFPLLIDCFPGTHNKVLKNVALTRSYIREKVKEHQASLDVNNPRDFIDCFLIKMEQEKDNQKSEFNIENLVGTVADLFVAGTETTSTTLRYGLLLLLKHPEVTAKVQEEIDHVIGRHRSPCMQDRSHMPYTDAVVHEIQRYSDLVPTGVPHAVTTDTKFRNYLIPKGTTIMALLTSVLHDDKEFPNPNIFDPGHFLDKNGNFKKSDYFMPFSAGKRICAGEGLARMELFLFLTTILQNFNLKSVDDLKNLNTTAVTKGIVSLPPSYQICFIPV"}},
  "key": {"[1]": {"type": "in vivo, Wistar rats", "details": "for Cmax: mean ± SEM (n = 5)"}, "[2]": {"details": "cited from earlier work; for elevation of oral exposure of repaglinide upon coadministration: clinical"}, "CYP2C8 [3]": {"tested_on": "CYP2C8", "details": "read-out: IC50 for CYP2C8 inhibitory activity; mixed type of inhibition; cited from earlier work"}, "[4]": {"details": "cited from earlier work"}, "CYP2C8 [5]": {"target": "T1, CYP2C8 (Homo sapiens, UniProt P10632)", "T1 sequence (P10632 1-490)": "B1 chain", "details": "read-out: Ki for CYP2C8 inhibition in HLM; cited from earlier work"}, "CYP2C8 [6]": {"target": "T1, CYP2C8"}, "CYP2D6": {"tested_on": "CYP2D6", "details": "read-out: IC50 for CYP2D6; cited from earlier work"}, "CYP2C8 [7]": {"target": "T1, CYP2C8", "experiment": "biochemical"}, "[8]": {"tested_on": "amodiaquine metabolism in rat liver microsomes (RLM)", "type": "in vitro ADME", "details": "RLM 0.5 mg/mL, amodiaquine 2 μM, myricetin 0, 10, 100 μM, 30 min"}, "CYP3A4": {"tested_on": "CYP3A4", "details": "cited from earlier work; for Ki: read-out: Ki for CYP3A4"}, "[9]": {"details": "rat model; cited from earlier work"}, "[10]": {"substrate": "CCN(CC)Cc1cc(Nc2ccnc3cc(Cl)ccc23)ccc1O", "experiment": "Kinetic parameters of CYP2C8-catalyzed amodiaquine-N-deethylation in HLM", "type": "in vitro ADME, human", "details": "other: HLM, N-desethylamodiaquine formation; pH 7.4; 37.0 °C"}, "[11]": {"details": "rats, amodiaquine 60 mg/kg oral alone (Group-I)"}, "[12]": {"details": "rats, myricetin 5 mg/kg i.v. followed by amodiaquine 60 mg/kg oral (Group-II)"}},
  "note": "“And” between values parts separate entries of the source, which are not always exact repeats. Equal values may be shown once. Read-outs that look alike come from different tables or passages of the source.",
  "data": [
    {"molecule": "CCNCc1cc(Nc2ccnc3cc(Cl)ccc23)ccc1O", "note": "[N-desethylamodiaquine]", "values": [
      {"measurement": "AUC0–t", "setting": "[1]; [11]", "result": "1313.30 ± 349.54", "unit": "ng·h/mL"},
      {"measurement": "AUC0–∞", "setting": "[1]; [11]", "result": "3362.65 ± 667.75", "unit": "ng·h/mL"},
      {"measurement": "MRT", "setting": "[1]; [11]", "result": "18.70 ± 4.68", "unit": "h"},
      {"measurement": "T1/2", "setting": "[1]; [11]", "result": "11.65 ± 3.21", "unit": "h"},
      {"measurement": "Tmax", "setting": "[1]; [11]", "result": "4.20 ± 0.80", "unit": "h"},
      {"measurement": "Cmax", "setting": "[1]; [11]", "result": "370.40 ± 125.05", "unit": "ng/mL"},
      {"measurement": "AUC0–t", "setting": "[1]; [12]", "result": "2061.57 ± 452.16", "unit": "ng·h/mL"},
      {"measurement": "AUC0–∞", "setting": "[1]; [12]", "result": "3980.79 ± 1273.24", "unit": "ng·h/mL"},
      {"measurement": "MRT", "setting": "[1]; [12]", "result": "12.64 ± 4.42", "unit": "h"},
      {"measurement": "T1/2", "setting": "[1]; [12]", "result": "7.91 ± 3.00", "unit": "h"},
      {"measurement": "Tmax", "setting": "[1]; [12]", "result": "3.60 ± 0.81", "unit": "h"}
    ]},
    {"molecule": "CCN(CC)Cc1cc(Nc2ccnc3cc(Cl)ccc23)ccc1O", "note": "[amodiaquine]", "values": [
      {"measurement": "AUC(0-t)", "setting": "[1]; male, Wistar, rat, plasma, po, 60 mg/kg, AUC0–t, rats, amodiaquine 60 mg/kg oral alone (Group-I)", "result": "3120 ± 414", "unit": "ng·h/mL"},
      {"measurement": "Cmax", "setting": "[1]; male, Wistar, rat, plasma, po, 60 mg/kg, Cmax, rats, amodiaquine 60 mg/kg oral alone (Group-I)", "result": "1030 ± 247", "unit": "ng/mL"},
      {"measurement": "half-life", "setting": "[1]; male, Wistar, rat, plasma, po, 60 mg/kg, T1/2, rats, amodiaquine 60 mg/kg oral alone (Group-I)", "result": "2.16 ± 0.3", "unit": "h"}
    ]},
    {"molecule": "COC(=O)[C@H](c1ccccc1Cl)N1CCc2sccc2C1", "note": "[clopidogrel]", "values": [
      {"measurement": "elevation of oral exposure of repaglinide upon coadministration", "setting": "[2]", "result": 5, "unit": "fold"}
    ]},
    {"molecule": "O=c1c(O)c(-c2ccc(O)c(O)c2)oc2cc(O)ccc12", "note": "[fisetin]", "values": [
      {"measurement": "IC50", "setting": "CYP2C8 [3]", "result": 10.8, "unit": "µM"}
    ]},
    {"molecule": "Cc1ccc(C)c(OCCCC(C)(C)C(=O)O)c1", "note": "[gemfibrozil]", "values": [
      {"measurement": "Cmax", "setting": "[4]; 600 mg twice daily, healthy human volunteers", "result": 16850, "unit": "ng/mL"},
      {"measurement": "increase in oral exposure of cerivastatin", "setting": "[2]; human subjects", "result": "about 5.6 fold"},
      {"measurement": "enhancement of AUC of repaglinide", "setting": "[2]; humans", "result": 8.3, "unit": "fold"},
      {"measurement": "enhancement of Cmax of repaglinide", "setting": "[2]; humans", "result": 2.4, "unit": "fold"},
      {"measurement": "enhancement of bioavailability of sitagliptin", "setting": "[2]; humans", "result": 54, "unit": "%"},
      {"measurement": "Ki", "setting": "CYP2C8 [5]", "result": 10.2, "unit": "µM"}
    ]},
    {"molecule": "O=c1c(O)c(-c2ccc(O)cc2O)oc2cc(O)cc(O)c12", "note": "[morin]", "values": [
      {"measurement": "IC50", "setting": "CYP2C8 [3]", "result": 17.3, "unit": "µM"}
    ]},
    {"molecule": "O=c1c(O)c(-c2cc(O)c(O)c(O)c2)oc2cc(O)cc(O)c12", "note": "[myricetin, Myricetin]", "values": [
      {"measurement": "IC50", "setting": "CYP2C8 [6]", "result": "2.4 ± 0.05", "unit": "µM"},
      {"measurement": "α-value", "setting": "CYP2C8 [6]; HLM, mixed inhibition model", "result": 3.55},
      {"measurement": "plasma exposure of N-desethylamodiaquine", "setting": "[1]; rats, myricetin coadministration vs amodiaquine without myricetin", "result": "Substantial elevation"},
      {"measurement": "Cmax in plasma", "setting": "[4]; humans, oral cranberry juice containing myricetin", "result": "21600 ± 5700", "unit": "ng/mL"},
      {"measurement": "IC50", "setting": "CYP2D6", "result": 30.2, "unit": "µM"},
      {"measurement": "Ki", "setting": "CYP2C8 [7]", "result": "1.7 ± 0.11", "unit": "µM"},
      {"measurement": "percent of amodiaquine remaining", "setting": "[8]", "result": "increased with the increasing concentration of myricetin"},
      {"measurement": "IC50", "setting": "CYP3A4; read-out: IC50 for CYP3A4", "result": "10.7 µM and 20.3 µM"}
    ]},
    {"molecule": "O=c1c(O)c(-c2ccc(O)c(O)c2)oc2cc(O)cc(O)c12", "note": "[quercetin]", "values": [
      {"measurement": "Cmax", "setting": "[4]; humans, 100 mg dose", "result": 2310, "unit": "ng/mL"},
      {"measurement": "alteration in the pharmacokinetics of midazolam", "setting": "[2]; single-dose treatment, humans", "result": "[…]"},
      {"measurement": "enhancement of oral exposure of repaglinide", "setting": "[9]", "result": 1.8, "unit": "fold"},
      {"measurement": "Ki", "setting": "CYP3A4", "result": "[…]"}
    ]},
    {"molecule": "Oc1ccc(/C=C/c2cc(O)cc(O)c2)cc1", "note": "[trans-resveratrol]", "values": [
      {"measurement": "Cmax", "setting": "[4]; humans, 2000 mg dose", "result": 1274, "unit": "ng/mL"},
      {"measurement": "decrease of clearance of carbamazepine", "setting": "[2]; clinical study", "result": 33, "unit": "%"},
      {"measurement": "enhancement of AUC of carbamazepine", "setting": "[2]; clinical study", "result": 1.4, "unit": "fold"},
      {"measurement": "Ki", "setting": "CYP3A4", "result": "[…]"}
    ]},
    {"molecule": "COc1cc(Cc2cnc(N)nc2N)cc(OC)c1OC", "note": "[trimethoprim]", "values": [
      {"measurement": "elevation of oral exposure of repaglinide upon coadministration", "setting": "[2]", "result": 2, "unit": "fold"}
    ]},
    {"molecule": "B1", "values": [
      {"measurement": "Km", "setting": "[10]", "result": "4.7 ± 0.12", "unit": "µM"},
      {"measurement": "Vmax", "setting": "[10]", "result": "3996 ± 46", "unit": "pmol/min/mg protein"}
    ]}
  ]
}
